The values that follow are results of earlier work, collected in PubChem BioAssay AID1259409 (Chemical Carcinogenesis Research Information System (CCRIS), 2018).

This data set deals with rodent chemically induced tumor inhibition, incidence and multiplicity. In words: CCRIS tumor inhibitor studies. The conditions noted are these: Dose [Inhibitor]: 0, Route [Inhibitor]: ORAL, Species: RAT.

Regarding `COc1ccc([C@@H]2CC(=O)c3c(O)cc(O[C@@H]4O[C@H](CO[C@@H]5O[C@@H](C)[C@H](O)[C@@H](O)[C@H]5O)[C@@H](O)[C@H](O)[C@H]4O)cc3O2)cc1O`, the “tumour outcome (control, treated, inhibition, significance)” value is 13/24 (54%), 4/18 (22%), 59%, p<0.05 (Carcinogen: 4-NITROQUINOLINE-1-OXIDE, 56-57-5, 500 PPM IN DIET FOR 10 WK BEGINNING 1 WK PRIOR TO CARCINOGEN TREATMENT (STUDY DURATION: 32 WK), Strain/Sex: F344/MALE, Target Tissue: Type of Lesion: TONGUE: CARCINOMA, Dose [Carcinogen]: 20 PPM IN DRINKING WATER FOR 8 WK, Promoter: NONE USED); 4/24 (17%), 2/18 (11%), 35%, not significant (Carcinogen: 4-NITROQUINOLINE-1-OXIDE, 56-57-5, 500 PPM IN DIET FOR 10 WK BEGINNING 1 WK PRIOR TO CARCINOGEN TREATMENT (STUDY DURATION: 32 WK), Strain/Sex: F344/MALE, Target Tissue: Type of Lesion: TONGUE: PAPILLOMA, Dose [Carcinogen]: 20 PPM IN DRINKING WATER FOR 8 WK, Promoter: NONE USED); 13/24 (54%), 8/19 (42%), 22%, not significant (Carcinogen: 4-NITROQUINOLINE-1-OXIDE, 56-57-5, 500 PPM IN DIET FOR 22 WK BEGINNING 1 WK POST CARCINOGEN TREATMENT (STUDY DURATION: 32 WK), Strain/Sex: F344/MALE, Target Tissue: Type of Lesion: TONGUE: CARCINOMA, Dose [Carcinogen]: 20 PPM IN DRINKING WATER FOR 8 WK, Promoter: NONE USED); 4/24 (17%), 1/19 (5%), 71%, not significant (Carcinogen: 4-NITROQUINOLINE-1-OXIDE, 56-57-5, 500 PPM IN DIET FOR 22 WK BEGINNING 1 WK POST CARCINOGEN TREATMENT (STUDY DURATION: 32 WK), Strain/Sex: F344/MALE, Target Tissue: Type of Lesion: TONGUE: PAPILLOMA, Dose [Carcinogen]: 20 PPM IN DRINKING WATER FOR 8 WK, Promoter: NONE USED); 8/17 (47%), 1/19 (5%), 89%, p<0.01 (Carcinogen: 4-NITROQUINOLINE-1-OXIDE, 56-57-5, 1000 PPM IN DIET FOR 10 WK BEGINNING 1 WK PRIOR TO CARCINOGEN TREATMENT (STUDY DURATION: 32 WK), Strain/Sex: F344/MALE, Target Tissue: Type of Lesion: TONGUE: PAPILLOMA, Dose [Carcinogen]: 20 PPM IN DRINKING WATER FOR 8 WK, Promoter: NONE USED); 11/17 (65%), 3/19 (16%), 75%, p<0.005 (Carcinogen: 4-NITROQUINOLINE-1-OXIDE, 56-57-5, 1000 PPM IN DIET FOR 10 WK BEGINNING 1 WK PRIOR TO CARCINOGEN TREATMENT (STUDY DURATION: 32 WK), Strain/Sex: R344/MALE, Target Tissue: Type of Lesion: TONGUE: SQUAMOUS CELL CARCINOMA, Dose [Carcinogen]: 20 PPM IN DRINKING WATER FOR 8 WK, Promoter: NONE USED). Also, the “tumour outcome (control, treated, inhibition, significance)” value is on record as 8/17 (47%), 2/20 (10%), 79%, p<0.05 (Carcinogen: 4-NITROQUINOLINE-1-OXIDE, 56-57-5, 1000 PPM IN DIET FOR 22 WK BEGINNING 1 WK POST CARCINOGEN TREATMENT (STUDY DURATION: 32 WK), Strain/Sex: F344/MALE, Target Tissue: Type of Lesion: TONGUE: PAPILLOMA, Dose [Carcinogen]: 20 PPM IN DRINKING WATER FOR 8 WK, Promoter: NONE USED); 11/17 (65%), 5/20 (25%), 62%, p<0.05 (Carcinogen: 4-NITROQUINOLINE-1-OXIDE, 56-57-5, 1000 PPM IN DIET FOR 22 WK BEGINNING 1 WK POST CARCINOGEN TREATMENT (STUDY DURATION: 32 WK), Strain/Sex: F344/MALE, Target Tissue: Type of Lesion: TONGUE: SQUAMOUS CELL CARCINOMA, Dose [Carcinogen]: 20 PPM IN DRINKING WATER FOR 8 WK, Promoter: NONE USED); 70%, 5%, 93%, p<0.001 (Carcinogen: AZOXYMETHANE, 25843-45-2, 0.1% IN DIET FOR 4 WK BEGINNING 1 WK PRIOR TO CARCINOGEN TREATMENT (STUDY DURATION: 32 WK), Strain/Sex: F344/MALE, Target Tissue: Type of Lesion: COLON: ADENOCARCINOMA, Dose [Carcinogen]: 15 MG/KG BW 1/WK FOR 3 WK, Promoter: NONE); 70%, 17%, 76%, p<0.005 (Carcinogen: AZOXYMETHANE, 25843-45-2, 0.1% IN DIET FOR 28 WK BEGINNING 1 WK POST LAST CARCINOGEN DOSE (STUDY DURATION: 32 WK), Strain/Sex: F344/MALE, Target Tissue: Type of Lesion: COLON: ADENOCARCINOMA, Dose [Carcinogen]: 15 MG/KG BW 1/WK FOR 3 WK, Promoter: NONE); 12/17 (71%), 3/19 (16%), 77%, p<0.001 (Carcinogen: AZOXYMETHANE, 25843-45-2, 1000 PPM IN DIET FOR 4 WK BEGINNING 1 WK PRIOR TO CARCINOGEN TREATMENT (STUDY DURATION: 32 WK), Strain/Sex: F344/MALE, Target Tissue: Type of Lesion: LARGE INTESTINE: TUMOR, Dose [Carcinogen]: 15 MG/KG BW 1/WK FOR 3 WK, Promoter: NONE USED); 5/17 (29%), 1/19 (5%), 83%, not significant (Carcinogen: AZOXYMETHANE, 25843-45-2, 1000 PPM IN DIET FOR 4 WK BEGINNING 1 WK PRIOR TO CARCINOGEN TREATMENT (STUDY DURATION: 32 WK), Strain/Sex: F344/MALE, Target Tissue: Type of Lesion: SMALL INTESTINE: TUMOR, Dose [Carcinogen]: 15 MG/KG BW 1/WK FOR 3 WK, Promoter: NONE USED). In addition, the “tumour outcome (control, treated, inhibition, significance)” value (Carcinogen: AZOXYMETHANE, 25843-45-2, 1000 PPM IN DIET FOR 28 WK BEGINNING 1 WK POST CARCINOGEN TREATMENT (STUDY DURATION: 32 WK), Strain/Sex: F344/MALE, Target Tissue: Type of Lesion: LARGE INTESTINE: TUMOR, Dose [Carcinogen]: 15 MG/KG BW 1/WK FOR 3 WK, Promoter: NONE USED) is given as 12/17 (71%), 3/20 (15%), 79%, p<0.001.
